Here are results for 66 compounds from a melting point compilation (Tetko et al.; mined from patent text by program, amines drawn as free bases though some values may be those of a salt).

A value given as a limit tells only on which side of the number the result lay.

`Fc1ccc(SCCCN2CCN(c3ncc(F)cn3)CC2)cc1`: the melting point – broadly, the temperature of the solid-liquid transition – fell in the range of 68 to 70 °C.
Then `N#CC(=NOCF)C(=N)NCl`, with 97 to 98 °C; and `CC(C)(C)C(O)c1ccc(C(=O)c2ccccc2)cc1` (stereo unspecified), with 103 to 105 °C.
In turn, `CCn1c(=O)n(O)c(=O)c2cc(F)c(N3CCCCC3)cc21` returned a melting point of 173 to 175 °C.
As for `O=C1N(Cn2nc3ccccc3n2)c2ccccc2C12COc1cc3c(cc12)CCO3` (stereo unspecified), the melting point was in the range of 102 to 105 °C.
In turn, `CCN(CC)C(=O)c1ccc(C(=O)N2CCN(c3ncccc3NC(C)C)CC2)cc1` registered a melting point of 78 to 80 °C.
Regarding `CCCC(=CC(N)C(=O)O)CP(=O)(O)O` (stereo unspecified), the melting point was 193 °C.
In the case of `COc1cccc2c(O)c(C(=O)NCC(=O)O)ncc12` it was 168 °C; in that of `O=C(Nc1ccc(Cl)c(-c2ccnc3c(C(=O)c4cccs4)cnn23)c1)c1ccccc1`, 194 to 195 °C.
Turning to `CC(C)(C)c1cc(OCc2n[nH]c(=S)o2)cc(C(C)(C)C)c1O`, the melting point fell in the range of 195 to 196 °C.
For `CC(=O)NCc1ccc(CN2CCN(c3ccccc3)CC2)cc1N`, the melting point lay within 148 to 149 °C.
Then `CC(C)Cc1cc2c(s1)C(C(=O)O)CC2=O` (stereo unspecified), with 80 °C; and `O=C(O)C1C2OCCC21Br` (mixture of isomers), with 196 to 198 °C.
Then `CC(C)CCCC(C)CCOc1cc(CO)c(-c2ccccc2)cc1CO` (stereo unspecified), with 112 to 115 °C; and `Cc1nnc2c(Cl)nc([N+](=O)[O-])c(N)n12`, with 220 °C; and `CCC1(NC(=O)C(Br)CCl)COCOC1` (stereo unspecified), with 95 to 109 °C.
Compound `NC(=O)n1nc(-c2ccc(F)cc2)cc1N` came in with a melting point of 140 °C.
Then `COC(=O)C1=C(C)Nc2n[nH]cc2C1c1ccccc1Cl` (stereo unspecified), with 235 °C.
For the compound `CCOCc1cc2c(cc1C#Cc1ccccc1)NC(=O)CC(c1cccc(C#N)c1)=N2`, the melting point is 229 °C.
Compound `COc1ccc2c(c1)c(C)cc(=O)n2Cc1ccccc1Cl` had a melting point of 177 to 179 °C.
In the case of `O=C(O)[C@H]1CC[C@H](N2CCC(Oc3ccc(Cl)c(Cl)c3)CC2)CC1` it was 167 to 168 °C.
In the case of `O=C1CCC(c2ccc(Br)cc2)N1` (stereo unspecified) it was 142 °C.
With `CCc1ncnc(O)c1[N+](=O)[O-]`, the melting point lay in the range of 181 to 183 °C.
As for `CC(=O)N[C@@H]1c2cnccc2OC(C)(C)[C@H]1O` (relative stereo), the melting point is 208 to 210 °C.
For `O=c1ccn(C2CC(O)C(COC3(c4ccccc4)c4ccccc4Oc4ccccc43)O2)c(=O)[nH]1` (stereo unspecified), the melting point is 157 to 160 °C.
In the case of `O=C(O)CCCCCCN(Cc1ccccc1)C(=O)c1cn2c3c(cccc13)CCC2` it was 45 to 47 °C; in that of `CCCCc1ccc2nc(NC(=O)c3csc(CNC(=O)OC(C)(C)C)n3)sc2c1`, 143 to 144 °C.
Then `Cc1nc(N2CCc3ccccc3CC2)c(C#N)c(=O)n1C`, with 155 to 158 °C; and `Cc1ccsc1C(Cc1cc(Br)ccc1N)N(C)C` (stereo unspecified), with 96 to 98 °C.
In the case of `CC(C)C[C@H](NC(=O)OCc1ccccc1)C(=O)NCCCNC(=O)[C@H](CC(C)C)NC(=O)OCc1ccccc1`, the melting point was in the range of 177 to 178 °C.
Then `CN1CC(=O)Nc2ccc(Br)cc2C1=O`, with 260 to 261 °C; and `CC(C)(COc1ccc(O)c(C(N)=O)c1)NCC(O)COc1ccccc1C#N` (stereo unspecified), with 125 to 126 °C.
Then `O=C(C=Cc1ccc(Cl)cc1Cl)c1ccccc1[N+](=O)[O-]`, with 130 to 132 °C.
In the case of `O=C(O)C1=Cc2cc(Cl)cc(I)c2OC1C(F)(F)F` (stereo unspecified) it was 220 to 223 °C; in that of `CNC(=S)C1=C(O)C2(CCOCC2)Oc2ccc([N+](=O)[O-])cc21`, 217 to 218 °C; in that of `O=C(O)C(Sc1nc2ccc(Cl)nc2s1)c1ccccc1` (stereo unspecified), 175 to 177 °C.
`NC(Cc1ccc(OCc2ccccc2)cn1)C(=O)Nc1ccc(CCCC(=O)NO)cc1` (stereo unspecified) had a melting point above 300 °C.
Then `O=S1(=O)CCN(c2ccc(O)cc2)CC1`, with 153 to 155 °C; and `N#CNC(=N)Nc1cc(Cl)cc(Cl)c1`, with 196 to 198 °C; and `Cc1cc(-c2ccc(C#N)cc2)sc1C(=O)N[C@H](C)[C@](O)(Cn1cncn1)c1ccc(F)cc1F`, with 176 to 177 °C.
Turning to `Cc1ncn(C(=O)Nc2cc(Cl)cc(Cl)c2)c1Cl`, the melting point fell in the range of 137 to 139 °C.
In turn, `Cc1cccc(C)c1N(CC(C)O)C(=O)c1ccccc1` (stereo unspecified) gave a melting point of 121 to 122 °C.
Then `CC(=O)C(C)N(C(=O)CCl)c1c(C)cccc1C` (stereo unspecified), with 78 to 82 °C; and `C#CCOCCn1cnc2cnc3ccccc3c21`, with 124 to 126 °C; and `CCc1cc(Cc2cnc(N)nc2N)cc(CC)c1O`, with 200 to 202 °C.
In the case of `COc1ccc(N2c3ccccc3CCC2c2ccccc2)cc1` (stereo unspecified) it was 88 to 90 °C; in that of `CCN(CC)CCCCNc1ncc2cc(-c3c(Cl)cccc3Cl)c(NC(=O)Nc3ccccc3)nc2n1`, 81 to 87.5 °C; in that of `CC(=O)SCC(=Cc1ccc2c(c1)OCO2)C(=O)NCCC(=O)OCc1ccccc1`, 76 °C.
Take `COc1ccc(Cl)cc1NC(=O)NCC(=O)c1ccccc1`: the melting point lay in the range of 171 to 173 °C.
Then `COc1ccc(C(=O)c2ccc(Cl)c(S(N)(=O)=O)c2)cc1`, with 156 to 158 °C.
In the case of `Cc1cc(SC(C)c2cccc3cn(-c4ccc(C(F)(F)F)cc4)nc23)ccc1OCC(=O)O` (stereo unspecified) it was 62 to 64 °C.
Then `COc1ccc(/C=C/C(=O)c2ccc(C(=O)O)cc2)cc1-c1cccs1`, with 219 to 220 °C.
For `COC(=O)c1[nH]c(C)c(C)c1OCCCCCl`, the melting point lay within 74 to 76 °C.
Then `CC(C)CCCC(C)C1CCC2(C#N)C3C(O)CC4C(C)(C)C(OC(=O)c5ccccc5)CCC4(C)C3CCC12C` (stereo unspecified), with 270 to 271 °C; and `CCCc1c(OCCCCCOc2cccc3cc(C(=O)O)oc23)ccc2c1OCCC2=O`, with 79.5 to 81 °C; and `Cc1c(C=O)cccc1-n1cccc1`, with 82 °C.
`CCCC(=O)c1cnn(C)c1S(N)(=O)=O` yielded a melting point of 97 to 99 °C.
In the case of `Clc1cccc2c1C1(CO1)c1cccc(Cl)c1C21CO1` (stereo unspecified) it was 172 to 178 °C; in that of `CCCCS(=O)(=O)C(c1ccc(Cl)cc1)c1ccc(Cl)cc1`, 104 to 106 °C; in that of `CCOC(=O)c1c(NC2CC(C)(C)NC(C)(C)C2)cc(C)nc1C`, 89 to 90 °C.
In the case of `CC(C#N)(CC#N)c1cccc([N+](=O)[O-])c1` (stereo unspecified) it was 142 to 143 °C; in that of `COc1cccc2nc(-c3ccc(OCCO)c(-c4ccc(S(C)(=O)=O)cc4)n3)[nH]c(=O)c12`, above 300 °C.
In the case of `COc1ccc(C2CC(c3ccccc3)=NN2c2ccc(S(N)(=O)=O)cc2)cc1` (stereo unspecified) it was 111 °C; in that of `C=C(C(=O)OC)[C@@H](O)c1ccccc1`, 48 °C; in that of `COc1ccc(NC=O)cn1`, 81 to 83 °C.
In the case of `O=C(O)Cc1c([N+](=O)[O-])ccc2c1O[C@@H](CNCc1ccccc1)CO2`, the melting point was determined as 206 °C.
